Measured values taken from patent publication US8911984B2, “Tannase, gene encoding same, and process for producing same” (Amano Enzyme Inc., priority 2008, dated 2014).

Columns and labels:
[1] = system: Tannase; assay: Effect of metallic ion and inhibitor on tannase activity; type: biochemical, Aspergillus awamori; settings: 30° C. 30 minutes, pH 5.0; for Relative activity (%): no addition = 100%
Procedure: 0.5 mL of a 50 mM citric acid buffer solution (pH 5.0) containing 1% tannic acid (Tannic acid, ACS Reagent [SIGMA]) is added with 0.5 ml of an enzyme solution, […], thereafter adding a 0.2 M acetic acid buffer solution (pH 5.0) containing 2% BSA to terminate the reaction. After terminating the reaction, the reaction solution is stood still in ice for 20 minutes and then centrifuged at 3,000 rpm for 20 minutes. The obtained supernatant is diluted 50 holds and an absorbance at a wavelength of 260 nm is measured. An analytical curve (standard curve) is formed using gallic acid and an enzyme amount that releases 1 μM of gallic acid for 1 minute is assumed to be 1 unit. […] The activity increased by addition of urea.

[2] = system: tannase derived from Aspergillus awamori; assay: Substrate specificity of tannase (rhodanine method); type: biochemical; settings: 0.17% tannic acid or 10 mM gallic acid ester, pH 5.0, 37° C., 30 minutes; tannic acid = 100%
Procedure: As described below, the method of Sharma (Anal. Biochem. 279, 85-89, 2000) was modified and substrate specificity was measured.
125 μL of a 50 mM citric acid buffer solution (pH 5.0) containing 0.17% tannic acid or 10 mM gallic acid esters (methyl gallate, ethyl gallate, propyl gallate, and isoamyl gallate) is added with 125 μL of an enzyme solution and incubated at 37° C. for 30 minutes, followed by adding and mixing 300 μL of methanol containing 0.667% Rhodanine, and the reaction solution is stood still for 10 minutes. Next, 200 μL of 0.5 N NaOH is added and mixed and the reaction solution is stood still for 10 minutes. Subsequently, the reaction solution is diluted with 9 mL of distilled water and left for 5 minutes, and an absorbance at a wavelength of 520 nm is measured. An analytical curve (standard curve) was formed using gallic acid and an activity that releases 1 μM of gallic acid for 1 minute is assumed to be 1 unit.
Substrate specificities to tannic acid and gallic acid esters (methyl gallate, ethyl gallate, propyl gallate, and isoamyl gallate) were measured in the above-mentioned measurement method of substrate specificity. When a dissolution activity to tannic acid was assumed to be 100%, a dissolution activity of each of the gallic acid esters was 41% for methyl gallate, 30% for ethyl gallate, 29% for propyl gallate, and 27% for isoamyl gallate.

[3] = Optimum reaction temperature of tannase; type: biochemical; settings: 50 mM citric acid buffer solution (pH 5.0), 30-80° C. tested
Procedure: (§1) 0.5 mL of a 50 mM citric acid buffer solution (pH 5.0) containing 1% tannic acid (Tannic acid, ACS Reagent [SIGMA]) is added with 0.5 ml of an enzyme solution, and incubated at 37° C. for 30 minutes, thereafter adding a 0.2 M acetic acid buffer solution (pH 5.0) containing 2% BSA to terminate the reaction. After terminating the reaction, the reaction solution is stood still in ice for 20 minutes and then centrifuged at 3,000 rpm for 20 minutes. The obtained supernatant is diluted 50 holds and an absorbance at a wavelength of 260 nm is measured. An analytical curve (standard curve) is formed using gallic acid and an enzyme amount that releases 1 μM of gallic acid for 1 minute is assumed to be 1 unit.
According to the above-mentioned measurement method of a tannase activity, the purified enzyme was reacted at reaction temperatures of 30° C., 35° C., 40° C., 45° C., 50° C., 55° C., 60° C., 65° C., 70° C., 75° C. and 80° C. Each measurement result was shown as a relative activity, assuming a value at a temperature showing the maximum activity as 100% (FIG. 1). The optimum reaction temperature was around 70° C.

[4] = Optimum reaction pH of tannase; type: biochemical; settings: 37° C., 30 minutes, 1% tannic acid; citric acid buffer pH 3-6, phosphate buffer pH 6-8
Procedure: as §1
The optimum reaction pH was measured under the reaction condition of 37° C. for 30 minutes in each buffer solution (citric acid buffer solutions at pH 3.0, 3.5, 4.0, 4.5, 5.0, 5.5 and 6.0, and phosphate buffer solutions at pH 6.0, 6.5, 7.0, 7.5 and 8.0) using 1% tannic acid for a substrate. Each measurement result was shown as a relative activity, assuming a value of a pH showing the maximum activity as 100% (FIG. 2). The optimum reaction pH was about 5.5.

[5] = Thermostability of purified tannase (residual activity after thermal treatment); type: biochemical; settings: 30 minutes, 50 mM citric acid buffer solution (pH 5.0)
Procedure: as §1
The purified enzyme was thermally treated for 30 minutes at each temperature of 30° C., 35° C., 40° C., 45° C., 50° C., 55° C., 60° C., 65° C., 70° C., 75° C. and 80° C. in a 50 mM citric acid buffer solution (pH 5.0), and a residual activity was then measured in the above-mentioned measurement method of a tannase activity. Each measurement result was shown as a residual activity, assuming a thermally untreated activity as 100% (FIG. 3). The purified enzyme had 90% or more of a residual activity in the thermal treatment at 65° C. for 30 minutes and was stable until 65° C.

[6] = pH stability of purified tannase; type: biochemical; settings: 30° C., 30 minutes
Procedure: as §1
The purified enzyme was treated in each buffer solution (citric acid buffer solutions at pH 3.0, 3.5, 4.0, 4.5, 5.0, 5.5 and 6.0, and phosphate buffer solutions at pH 6.0, 6.5, 7.0, 7.5 and 8.0) at 30° C. for 30 minutes and diluted 5 holds with a 0.2 M acetic acid buffer solution (pH 5.0), and an activity was measured in the above-mentioned measurement method of a tannase activity. Each measurement result was shown as a relative activity, assuming a value of a pH showing the maximum activity as 100% (FIG. 4). The stable pH range was from 3 to 8.

[7] = Isoelectric point by isoelectric electrophoresis (PhastSystem); type: physicochemical
Procedure: When the isoelectric point of the present enzyme was measured by isoelectric electrophoresis using PhastSystem (GE Healthcare Bio-Sciences Ltd.), it was 6.4.

Row | Molecule | Relative activity (%) ([1]; 20 mM metallic ion or EDTA) | dissolution activity relative to tannic acid [2] | also measured
1 | [Cu+2] [Cu^2+] | 72% | – | –
2 | [Zn+2] [Zn^2+] | 82% | – | –
3 | O=C(OC[C@H]1O[C@@H](OC(=O)c2cc(O)c(O)c(OC(=O)c3cc(O)c(O)c(O)c3)c2)[C@H](OC(=O)c2cc(O)c(O)c(OC(=O)c3cc(O)c(O)c(O)c3)c2)[C@@H](OC(=O)c2cc(O)c(O)c(OC(=O)c3cc(O)c(O)c(O)c3)c2)[C@@H]1OC(=O)c1cc(O)c(O)c(OC(=O)c2cc(O)c(O)c(O)c2)c1)c1cc(O)c(O)c(OC(=O)c2cc(O)c(O)c(O)c2)c1 [tannic acid] | – | 100% | –
4 | CC(C)CCOC(=O)c1cc(O)c(O)c(O)c1 [isoamyl gallate] | – | 27% | –
5 | O=C(O)CN(CCN(CC(=O)O)CC(=O)O)CC(=O)O [EDTA] | 101% | – | –
6 | COC(=O)c1cc(O)c(O)c(O)c1 [methyl gallate] | – | 41% | –
7 | CCOC(=O)c1cc(O)c(O)c(O)c1 [ethyl gallate] | – | 30% | –
8 | [Fe+3] [Fe^3+] | 91% | – | –
9 | NC(N)=O [Urea, urea] | – | – | effect on tannase activity (in words) [1]: increased; Relative activity (%) ([1]; urea 0.4 M): 108%; Relative activity (%) ([1]; urea 0.8 M): 117%; Relative activity (%) ([1]; urea 2 M): 150%; Relative activity (%) ([1]; urea 4 M): 197%
10 | [Ca+2] [Ca^2+] | 109% | – | –
11 | [Mg+2] [Mg^2+] | 118% | – | –
12 | CCCOC(=O)c1cc(O)c(O)c(O)c1 [propyl gallate] | – | 29% | –
13 | [Mn+2] [Mn^2+] | 98% | – | –
14 | purified enzyme: tannase purified from Aspergillus awamori NBRC-4033 (IFO-4033), amino acid sequence SEQ ID NO: 5 (protein, listed as Aspergillus awamorii) MRSPAWASIAITAFAALANAGTPSTLAELCTDSIVKAALPPSEFIKGITIDSDSVTTEVVTNSSFSSEFYPSATIDYCNVTFAYSHDGIDGDQVLLEIWLPAPTNFKNRWLSTGGGGYAINSGDQSLPGGVMYGAASGMTDGGFGGFSNNADTAMLLANGTLNYETLYMFAYKAHRELSLLGKALTRNVYGMSDSDKLYAYYQGCSEGGREGWSQVQRFGDEWDGAIIGAPAFRWSFQQTQHLYSNIVEKTLDYYPPPCELDKIVNETIAACDAMDGKVDWVVARTDLCLLDFDISTIEGKPYSCAASRGTPAQNGTVSAKGIEVAKTIINGLHDSQGRRVYFSYQPTAAFDDAETQYNSTTGQWGLDIDQLGGEYIALLVDKNGTTLDSLDGITYDTLKDWMISGLQEYYSTLQTTWPDLTPFHNAGGKVIHFHGDADFSIPTAASIRYWESVRSIMYPNKDYNSSAEALNEWYRLYTVPGAGHCATNDAMPNGPFPQTNMAVMIDWVENGVVPTTLNATVLQGENEGQNQQLCAWPLRPLWTNNGTTMECVYNQRSIDSWHYDLDAVPMPVY | – | – | optimum reaction temperature [3]: around 70 °C; optimum reaction pH [4]: about 5.5; residual activity after thermal treatment ([5]; 65° C., untreated = 100%): ≥ 90%; temperature up to which enzyme is stable [5]: ≤ 65 °C; activity with respect to the maximum activity after treatment within pH 3 to 8 [6]: ≥ 80%; isoelectric point [7]: 6.4
